Data set [1] concerns the target Mitogen-activated protein kinase 14 (Homo sapiens, UniProt Q16539). As to the kind of experiment: Inhibition of human MAP p38-alpha kinase in vitro.
Data set [2] in a line: Aqueous solubility at pH 7.4. In kind it is physicochemical.

Each structure is given as a SMILES string. Values after ≈ are worked out from the molar mass of the structure shown.

Mitogen-activated protein kinase 14, sequence (Q16539 whole entry): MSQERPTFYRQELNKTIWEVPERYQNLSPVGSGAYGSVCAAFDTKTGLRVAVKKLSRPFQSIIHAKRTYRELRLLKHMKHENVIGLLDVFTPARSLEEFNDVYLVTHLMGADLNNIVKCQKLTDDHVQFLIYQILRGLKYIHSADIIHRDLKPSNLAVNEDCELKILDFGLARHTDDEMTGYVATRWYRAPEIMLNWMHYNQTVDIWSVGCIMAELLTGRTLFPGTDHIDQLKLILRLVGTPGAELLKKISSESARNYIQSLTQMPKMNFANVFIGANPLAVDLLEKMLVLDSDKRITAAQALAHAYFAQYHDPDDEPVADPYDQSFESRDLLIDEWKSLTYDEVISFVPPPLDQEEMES

Molecule `Cc1cc(F)ccc1-c1nc(N(C(N)=O)c2ccc(Cl)cc2)c2ncn(C)c2n1` yielded an IC50 in data set [1] of 9800 nM.

`Cn1cnc2c(N(C(N)=O)c3c(F)cccc3F)nc(-c3ccc(F)cc3)nc21`: the IC50 in data set [1] turned out to be 1000 nM.

`CN(C)CCn1cnc2c(N(C(N)=O)c3c(F)cccc3F)nc(-c3ccccc3F)nc21`: the solubility in data set [2] is above 20 µM. Also, the IC50 in data set [1] came to 82 nM.

In data set [1], `Cn1cnc2c(N(C(N)=O)c3c(F)cccc3F)nc(-c3ccccc3Cl)nc21` had an IC50 of 30 nM.

The molecule `Cn1cnc2c(N(C(N)=O)c3c(F)cccc3F)nc(-c3cccc(Cl)c3)nc21` displayed an IC50 in data set [1] of 550 nM.

`Cc1cc(F)ccc1-c1nc(N(C(N)=O)c2ccccc2Cl)c2ncn(C)c2n1`: the IC50 in data set [1] worked out at 123 nM.

`Cc1cc(F)ccc1-c1nc(N(C(N)=O)c2c(F)cccc2F)c2ncn(C)c2n1` returned an IC50 in data set [1] of 128 nM.

Turning to `Cc1cc(F)ccc1-c1nc(N(C(N)=O)c2ccccc2)c2ncn(C)c2n1`, the IC50 in data set [1] was above 16700 nM.

`Cn1cnc2c(N(C(N)=O)c3c(F)cccc3F)nc(-c3ccccc3F)nc21` came in with a solubility in data set [2] of 1 µM (≈ 0.398 µg/mL). The molecule further showed a 50% inhibitory concentration (IC50) in data set [1] of 36 nM.

Molecule `Cn1cnc2c(N(C(N)=O)c3c(F)cccc3F)nc(-c3cccc(F)c3)nc21` gave an IC50 in data set [1] of 5000 nM.

Molecule `Cc1cc(F)ccc1-c1nc(N(C(N)=O)c2ccc(F)cc2)c2ncn(C)c2n1` came in with an IC50 in data set [1] of 1400 nM.

Consider `Cn1cnc2c(N(C(N)=O)c3c(F)cccc3F)nc(-c3ccccc3)nc21`, for which the IC50 in data set [1] is 510 nM.

In turn, `Cc1ccccc1-c1nc(N(C(N)=O)c2c(F)cccc2F)c2ncn(C)c2n1` returned an IC50 in data set [1] of 140 nM.

Turning to `COc1ccccc1N(C(N)=O)c1nc(-c2ccc(F)cc2C)nc2c1ncn2C`, in data set [1], the IC50 was above 16700 nM.

Regarding `Cc1cc(F)ccc1-c1nc(N(C(N)=O)c2c(F)cc(F)cc2F)c2ncn(C)c2n1`, the midpoint of inhibition in data set [1], the IC50, lay at 163 nM.

Turning to `NC(=O)N(c1c(F)cccc1F)c1nc(-c2ccccc2F)nc2c1ncn2Cc1ccccc1`, in data set [1], half-maximal inhibition (IC50) was put at 16 nM.

Take `Cn1cnc2c(N(C(N)=O)c3c(F)cccc3F)nc(-c3cc(F)cc(F)c3)nc21`: the IC50 in data set [1] was above 16700 nM.

As for `Cc1cccc(-c2nc(N(C(N)=O)c3c(F)cccc3F)c3ncn(C)c3n2)c1`, the IC50 in data set [1] worked out at 350 nM.

Take `Cc1ccc(-c2nc(N(C(N)=O)c3c(F)cccc3F)c3ncn(C)c3n2)cc1`: in data set [1], the IC50 was 2100 nM.

In data set [1], `Cn1cnc2c(N(C(N)=O)c3c(F)cccc3F)nc(-c3ccc(F)cc3F)nc21` displayed an IC50 of 26 nM.

Values taken from ChEMBL document CHEMBL1136664, “N-Phenyl-N-purin-6-yl ureas: the design and synthesis of p38alpha MAP kinase inhibitors” (Bioorg Med Chem Lett, 2003).
